The values that follow come from patent US20100009906A1, “Anticancer Treatments” (PHARMA MAR, S.A., priority 2006, published 2010).

Read-outs that look alike come from different tables or passages of the source.

The nature of series [1]: Pharmacokinetics of trabectedin and docetaxel following coadministration in patients with advanced malignancies. Type of series: in vivo, human. The note with it: for CL / Vss / clearance / Vd: mean (SD); for Vd: read-out: Vss. The procedure:
FIG. 2 and FIG. 3. Pharmacokinetic parameters of trabectedin and docetaxel following coadministration in patients with advanced malignancies.
A phase I trial combining docetaxel and trabectedin was performed. The objective of this study was to determine the maximum tolerated dose (MTD) of trabectedin in combination with docetaxel (60 mg/m^2 or 75 mg/m^2) administered every 21 days. Additional objectives were to evaluate the safety profile of this combination of drugs and to evaluate the pharmacokinetics of trabectedin and docetaxel when given in combination. The maximum tolerated dose (MTD) relates to the highest dose at which less than one third of the subjects in a dose-level cohort experienced dose-limiting toxicity (DLT).
We designed a dose finding trial with a fixed docetaxel dose of 60 mg/m^2 or 75 mg/m^2 administered intravenously over one hour, followed by one of six trabectedin doses (0.4, 0.6, 0.75, 0.9, 1.1, and 1.3 mg/m^2) administered intravenously over 3 hours, with one hour of rest between the administration of docetaxel and ET-743. This treatment was repeated every 21 days. […] Restricted patients received ≦1 prior chemotherapy regimen whereas unrestricted patients had no limit. In addition, protocol amendment after dose level 2a allowed administration of primary prophylactic G-CSF.

Series [2] relates to human tumour xenografts (melanoma, ovarian and breast carcinoma). The note with it: athymic mice; cited from earlier work.
The subject of series [3] is patients with sarcoma, breast and ovarian carcinoma. The note with it: cited from earlier work.
Setting [4] is: trabectedin 400 μg/m^2 (n = 6) coadministered with 60 mg/m^2 of docetaxel.
Where [5] appears, read: trabectedin 600 μg/m^2 (n = 3) coadministered with 60 mg/m^2 of docetaxel.
The mark [6] stands for this setting: human, in vivo, intravenous, docetaxel 60 mg/m^2 coadministered with trabectedin 400 μg/m^2 (n = 6).
Setting [7] is: human, in vivo, intravenous, docetaxel 60 mg/m^2 coadministered with trabectedin 600 μg/m^2 (n = 4).

Regarding `COc1cc2c(cc1O)CCN[C@]21CS[C@@H]2c3c(OC(C)=O)c(C)c4c(c3[C@H](COC1=O)N1[C@@H]2[C@H]2c3c(cc(C)c(OC)c3O)C[C@@H]([C@@H]1O)N2C)OCO4` [Trabectedin, Ecteinascidin 743], the CL in series [1] (setting [4]) is recorded as 127 (61) L/h; in series [1] (setting [5]), 101 (46) L/h. Moreover, the Vss in series [1] (setting [4]) is reported as 1179 (1402) L; in series [1] (setting [5]), 2754 (1946) L. Moreover, the “Terminal t1/2” value is 11.4 (3.3-100) h in series [1] (trabectedin 400 μg/m^2 (n = 6) coadministered with 60 mg/m^2 of docetaxel, median (range)) and 37.5 (11.7-98.8) h in series [1] (trabectedin 600 μg/m^2 (n = 3) coadministered with 60 mg/m^2 of docetaxel, median (range)). Also, the “Anticancer activity against human tumour xenografts” value in series [2] is reported as “potent anticancer activity”. Besides, the Responses in patients entry in series [3] is listed as “Promising ET-743 responses”.

Take `CC(=O)O[C@@]12CO[C@@H]1C[C@H](O)[C@@]1(C)C(=O)[C@H](O)C3=C(C)[C@@H](OC(=O)[C@H](O)[C@@H](NC(=O)OC(C)(C)C)c4ccccc4)C[C@@](O)([C@@H](OC(=O)c4ccccc4)[C@H]21)C3(C)C` [Docetaxel, (2R,3S)-N-carboxy-3-phenylisoserine, N-tert-butyl ester, 13-ester with 5β-20-epoxy-1,2α,4,7β,10β, 13α-hexahydroxytax-11-en-9-one 4-acetate 2-benzoate, trihydrate]: the “Terminal t1/2” value in series [1] (docetaxel 60 mg/m^2 coadministered with trabectedin 400 μg/m^2 (n = 6), median (range)) was 19.9 (6.7-23) h. Moreover, in series [1] (setting [6]), the clearance was 815 mL/min and the Vd worked out at 405 L. In series [1] (setting [7]), the clearance is 797 mL/min and the Vd is 900 L. Moreover, in series [1] (human, in vivo, intravenous, docetaxel 60 mg/m^2 coadministered with trabectedin 600 μg/m^2 (n = 4), median (range), read-out: Terminal t1/2 (converted)), the half-life was 38.2 h. For the same compound, the “Impact of concomitant administration of trabectedin on the pharmacokinetics of docetaxel” value in series [1] (patients with advanced malignancies) was “not adversely impacted”.
